# Measured values from US6525059B1, “Substituted pyrazoles as p38 kinase inhibitors” (G. D. Searle & Company, priority 1998, dated 2003).
# Counter-ions that a name gives are not always drawn. Like-named read-outs stand apart in the source and are kept apart here.
# What was measured:
# TNF-α [1] = experiment: Rat assay: LPS-challenged rats, serum TNF-α by ELISA; assay type: in vivo
# Protocol: The efficacy of the novel compounds in blocking the production of TNF also was evaluated using a model based on rats challenged with LPS. Male Harlen Lewis rats [Sprague Dawley Co.] were used in this model. Each rat weighed approximately 300 g and was fasted overnight prior to testing. Compounds administration was typically by oral gavage (although intraperitoneal, subcutaneous and intravenous administration were also used in a few instances) 1 to 24 hours prior to the LPS challenge. Rats were administered 30 μg/kg LPS [salmonella typhosa, Sigma Co.] intravenously via the tail vein. Blood was collected via heart puncture 1 hour after the LPS challenge. Serum samples were stored at −20° C. until quantitative analysis of TNF-α by Enzyme Linked-Immuno-Sorbent Assay (“ELISA”) [Biosource]. Additional details of the assay are set forth in Perretti, M., et al., Br. J. Pharmacol. (1993), 110, 868-874, which is incorporated by reference in this application.
# In vivo assessment of the ability of the compounds to inhibit LPS-stimulated TNF release in the rat is shown in the column identified as:
# wherein in the dose is milligram per kilogram (mpk) administered by oral gavage and the predose time indicates the number of hours before LPS challenge when the compound is administered.
# TNF-α [2] = experiment: LPS stimulation of TNF production by U937 cells; assay type: cell-based, human; settings: Homo sapiens; for inhibition at 1 µM: U-937, @ 1.0 uM, read-out: U937 Cell % inhib @ conc.
# Method in brief: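 PMA-differentiated human U937 cells (20 ng/ml PMA, 24 h, then 24-48 h rest) at 2 million cells/ml, 0.1% DMSO final, stimulated with E. coli LPS (100 ng/ml final) for 4 h at 37° C. TNF-α in medium measured by ELISA; IC50 in μM.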
# human p38 kinase alpha = target: T1, human p38 kinase alpha (Homo sapiens, UniProt Q16539); experiment: p38 kinase in vitro assay, phosphorylation of biotinylated PHAS-I with gamma 32P-ATP; assay type: biochemical; settings: for IC50: read-out: P38 alpha kinase IC50; for inhibition at 1 µM: read-out: P38 alpha kinase % inhib @ conc.
# T1 construct: The coding region of the human p38a cDNA was obtained by PCR-amplification from RNA isolated from the human monocyte cell line THP.1; GST (N); made in house; host or cells: E. coli DH10B
# Method in brief: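 MKK6-activated human p38α phosphorylates biotinylated PHAS-I with γ-32P-ATP in 25 mM HEPES pH 7.5, 10 mM Mg acetate, 50 μM unlabeled ATP, 1% DMSO, 30 °C for 1 h or overnight. Compounds at 100–0.001 μM (10-fold steps, triplicate); substrate captured on streptavidin filter plates and counted by scintillation.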
# [3] = 3 mpk oral gavage, -4h before LPS
# T1 sequence (Q16539 whole entry): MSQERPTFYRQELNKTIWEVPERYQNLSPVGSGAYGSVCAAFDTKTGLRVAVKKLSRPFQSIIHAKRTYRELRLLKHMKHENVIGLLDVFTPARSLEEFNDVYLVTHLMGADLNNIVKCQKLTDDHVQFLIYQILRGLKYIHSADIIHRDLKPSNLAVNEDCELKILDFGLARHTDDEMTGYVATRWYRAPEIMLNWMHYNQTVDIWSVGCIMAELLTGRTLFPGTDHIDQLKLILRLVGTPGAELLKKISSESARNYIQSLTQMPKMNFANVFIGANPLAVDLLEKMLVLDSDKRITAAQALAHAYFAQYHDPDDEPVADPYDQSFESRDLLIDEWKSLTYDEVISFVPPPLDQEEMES
Compound,Rat LPS Model % inhib @ dose @ predose time (TNF-α [1]; [3]),inhibition at 1 µM (TNF-α [2]) [%],further results
CC(NC(=O)C(C)(C)C)c1[nH]nc(-c2ccc(F)cc2)c1-c1ccncc1 (stereo not shown) [Example B-0601],43% @ 3 mpk %-4h,,
COc1ccc(S(=O)(=O)NC(C)c2[nH]nc(-c3ccc(F)cc3)c2-c2ccncc2)cc1 (stereo not shown) [Example B-0574],37% @ 3 mpk @ -4h,,
CC(NS(=O)(=O)Cc1ccccc1)c1[nH]nc(-c2ccc(F)cc2)c1-c1ccncc1 (stereo not shown) [Example B-0566],0% @ 3 mpk @ -4h,,
"5-[2-(1,1-DIMETHYL)AMINOETHYL]-4-(4-PYRIDYL)-3-(4-FLUOROPHENYL)PYRAZOLE [Example C-114]",,,"Rat LPS Model % Inhibition @ dose @ predose time (TNF-α [1]; 5 mpk oral gavage, 4 h before LPS challenge): 39% @ 5 mpk @ −4h"
CC(NS(=O)(=O)c1ccc(Cl)s1)c1[nH]nc(-c2ccc(F)cc2)c1-c1ccncc1 (stereo not shown) [Example B-0650],8% @ 3 mpk @ -4h,,
CC(NS(=O)(=O)c1cccc(Cl)c1)c1[nH]nc(-c2ccc(F)cc2)c1-c1ccncc1 (stereo not shown) [Example B-0639],50% @ 3 mpk @ -4h,,
"Fc1ccc(-c2n[nH]cc2-c2ccnc(NCCN3CCC(N4CCCCC4)CC3)c2)cc1 [Example A-350, N-(2-[1,4′-bipiperidin]-1′-ylethyl)-4-[3-(4-fluorophenyl)-1H-pyrazol-4-yl]-2-pyridinamine]",,,"inhibition in vivo at 20 mg/kg (TNF-α [1]; Rattus norvegicus, po, Table 9, dose 20 mg/kg): 65%"
CC(NS(=O)(=O)c1ccc(C#N)cc1)c1[nH]nc(-c2ccc(F)cc2)c1-c1ccncc1 (stereo not shown) [Example B-0656],28% @ 3 mpk @ -4h,,
CC(NS(=O)(=O)c1ccc(F)cc1)c1[nH]nc(-c2ccc(F)cc2)c1-c1ccncc1 (stereo not shown) [Example B-0562],5% @ 3 mpk @ -4h,,
"O=C(O)CCC(=O)N1CCN(c2n[nH]c(-c3ccc(Cl)cc3)c2-c2ccncc2)CC1 [A-321 (monosodium salt dihydrate), 4-[5-(4-chlorophenyl)-4-(4-pyridinyl)-1H-pyrazol-3-yl]-γ-oxo-1-piperazinebutanoic acid, monosodium salt dihydrate]",,,"inhibition in vivo at 3 mg/kg (TNF-α [1]; Rattus norvegicus, po, read-out: Rat LPS Assay % Inhibition): 14%"
O=C(c1ccc(F)cc1)N1CCC(c2[nH]nc(-c3ccc(F)cc3)c2-c2ccncc2)CC1 [Example B-1360],,,"Rat LPS Model % inhib @ dose @ predose time (TNF-α [1]; 3 mpk oral gavage, 4 h before LPS challenge): 54% @ 3 mpk @ -4h"
C[C@@H](NS(=O)(=O)N(C)C)c1[nH]nc(-c2ccc(F)cc2)c1-c1ccncc1 [Example B-0487],,,"inhibition in vivo at 3 mg/kg (TNF-α [1]; Rattus norvegicus, po, -4 h, 3 mpk oral gavage, -4h before LPS, read-out: Rat LPS Model % inhib @ dose @ predose time): 54%"
Cc1ccc(S(=O)(=O)NC(C)c2[nH]nc(-c3ccc(F)cc3)c2-c2ccncc2)cc1 (stereo not shown) [Example B-0576],65% @ 3 mpk @ -4h,,
Cc1c(C)c(S(=O)(=O)N[C@H](C)c2[nH]nc(-c3ccc(F)cc3)c2-c2ccncc2)c(C)c2c1OC(C)(C)CC2 [Example B-0482],,68,IC50 (human p38 kinase alpha): 970 nM
CCCOC(=O)NCc1[nH]nc(-c2ccc(F)cc2)c1-c1ccncc1 [Example B-0203],,65,IC50 (human p38 kinase alpha): 160 nM
COc1ccc(C)cc1S(=O)(=O)N[C@H](C)c1[nH]nc(-c2ccc(F)cc2)c1-c1ccncc1 [Example B-0470],,92,IC50 (human p38 kinase alpha): 63 nM
CC(C)COC(=O)NCc1[nH]nc(-c2ccc(F)cc2)c1-c1ccncc1 [Example B-0009],,,"IC50 (TNF-α [2]; U-937, TNF production, LPS-stimulated human U937 cells, read-out: U937 Cell IC50): 720 nM; IC50 (human p38 kinase alpha): 40 nM"
Cc1onc(-c2ccccc2Cl)c1C(=O)NCc1[nH]nc(-c2ccc(F)cc2)c1-c1ccncc1 [Example B-0056],,21,inhibition at 1 µM (human p38 kinase alpha): 96%
O=C(NCc1[nH]nc(-c2ccc(F)cc2)c1-c1ccncc1)C1CCCC1 [Example B-0079],,13,inhibition at 1 µM (human p38 kinase alpha): 93%
C[C@@H](NC(=O)c1cc(F)ccc1F)c1[nH]nc(-c2ccc(F)cc2)c1-c1ccncc1 [Example B-0520],,67,IC50 (human p38 kinase alpha): 400 nM
Cc1c(Cl)cccc1S(=O)(=O)NCc1[nH]nc(-c2ccc(F)cc2)c1-c1ccncc1 [Example B-0124],,15,inhibition at 1 µM (human p38 kinase alpha): 73%
O=S(=O)(NCc1[nH]nc(-c2ccc(F)cc2)c1-c1ccncc1)c1ccc2ccccc2c1 [Example B-0110],,13,inhibition at 1 µM (human p38 kinase alpha): 66%
